Measured values taken from patent publication US11672792B2, “Topical formulations comprising montelukast and combinations with mussel adhesive proteins” (ENLITISA (SHANGHAI) PHARMACEUTICAL CO., LTD, priority 2017, dated 2023).

System: carrageenan-induced acute inflammation in subcutaneous air pouch
Test: Air Pouch Model II (Example 2)
Assay type: in vivo, mice
Description: In Table 6, “Dex” is an abbreviation for dexamethasone and “Dopamine” is a 4 mg/mL aqueous solution of dopamine hydrochloride (Shanghai Aladdin Bio-Chem Technology Co., Ltd., Shanghai, China).
The histological specimens were analysed and an inflammation score, an activity score and a fibroplastic proliferation score were estimated as in Example 1 above and are tabulated in Table 9 below.

[1] = Dex 400 μg, Dopamine 2 mg, MAP 250 μg, Mon 100 μg
[2] = doses/mouse: Dex 400 μg, Dopamine 2 mg, MAP 250 μg, Mon 100 μg

Cl.NCCc1ccc(O)c(O)c1 [Dopamine, dopamine hydrochloride]
Activity score [1]: 1.67 | Edema Score [1]: 2.33 | Fibroplastic proliferation score [1]: 0.00 | IFN-γ in exudate (ELISA) [1]: 5153.02 ± 5773.45 | IL-6 in exudate (ELISA) [1]: 1740.11 ± 765.02 | Inflammation score [1]: 2.00 | Leukocyte count in exudate [1]: 1.91e+06 mL⁻¹ | Lymphocyte count in exudate [1]: 50000 mL⁻¹ | Monocyte count in exudate [1]: 1.58e+06 mL⁻¹ | Neutrophil count in exudate [1]: 190000 mL⁻¹ | Sum (of histology scores) [1]: 6.00 | Exudate volume [2]: 2.93 ± 0.06 mL | Pouch Wall Weight [2]: 0.44 ± 0.07 g | pouch wall fibrous tissue proliferation (in words) (histology): no fibrous tissue proliferation | pouch wall inflammatory / lymph cell infiltration (in words) (histology): a lot of | pouch wall interstitial edema (in words) (histology): mild to moderate
